Source: PubChem BioAssay AID1259407 (Chemical Carcinogenesis Research Information System (CCRIS), 2018)
Activity calls are given as the source filed them. How the calls were made is not given here.

System: CCRIS mutagenicity, Ames/micronucleus/aberration tests
Assay: CCRIS mutagenicity studies
[1] = Test System: AMES SALMONELLA TYPHIMURIUM, Strain/Indicator: TA98, Metabolic Activation: NONE, Method: PREINCUBATION
[2] = Test System: AMES SALMONELLA TYPHIMURIUM, Strain/Indicator: TA98, Metabolic Activation: NONE, Method: STANDARD PLATE
[3] = Test System: AMES SALMONELLA TYPHIMURIUM, Strain/Indicator: TA100, Metabolic Activation: NONE, Method: STANDARD PLATE

CC(=O)ON(C(C)=O)c1ccc(-c2ccccc2)cc1
mutagenic call (Test System: AMES SALMONELLA TYPHIMURIUM, Strain/Indicator: TA98(1,8-DNP6), Metabolic Activation: HUMAN, UROEPITHELIAL CELL, MICROSOMES, Method: PREINCUBATION): active; positive | mutagenic call (Test System: AMES SALMONELLA TYPHIMURIUM, Strain/Indicator: TA98(1,8-DNP6), Metabolic Activation: NONE, Method: PREINCUBATION): active; positive | mutagenic call (Test System: AMES SALMONELLA TYPHIMURIUM, Strain/Indicator: TA98, Metabolic Activation: DOG, BLADDER, MICROSOMES, Method: PREINCUBATION): active; positive | mutagenic call (Test System: AMES SALMONELLA TYPHIMURIUM, Strain/Indicator: TA98, Metabolic Activation: DOG, LIVER, MICROSOMES, Method: PREINCUBATION): active; positive | mutagenic call (Test System: AMES SALMONELLA TYPHIMURIUM, Strain/Indicator: TA98, Metabolic Activation: HUMAN, UROEPITHELIAL CELL, CYTOSOL, Method: PREINCUBATION): inactive; negative | mutagenic call (Test System: AMES SALMONELLA TYPHIMURIUM, Strain/Indicator: TA98, Metabolic Activation: HUMAN, UROEPITHELIAL CELL, MICROSOMES, Method: PREINCUBATION): active; positive | mutagenic call (Test System: AMES SALMONELLA TYPHIMURIUM, Strain/Indicator: TA98, Metabolic Activation: HUMAN, UROEPITHELIAL CELL, S-9, Method: PREINCUBATION): active; positive | mutagenic call [1]: active; positive | mutagenic call (Test System: AMES SALMONELLA TYPHIMURIUM, Strain/Indicator: TA98, Metabolic Activation: RAT, BLADDER, MICROSOMES, Method: PREINCUBATION): active; positive | mutagenic call (Test System: AMES SALMONELLA TYPHIMURIUM, Strain/Indicator: TA98, Metabolic Activation: RAT, LIVER, MICROSOMES, Method: PREINCUBATION): active; positive | mutagenic call (Test System: AMES SALMONELLA TYPHIMURIUM, Strain/Indicator: YG1024, Metabolic Activation: HUMAN, UROEPITHELIAL CELL, MICROSOMES, Method: PREINCUBATION): active; positive | mutagenic call (Test System: UDS HUMAN FIBROBLASTS, Strain/Indicator: THY INCORP (NON-S-PHASE), Metabolic Activation: NONE, Method: AUTORADIOGRAPHY): active; positive

Cc1cccc(Nc2ccncc2S(=O)(=O)NC(=O)NC(C)C)c1
mutagenic call [2]: inactive; negative | mutagenic call (Test System: AMES SALMONELLA TYPHIMURIUM, Strain/Indicator: TA98, Metabolic Activation: RAT, LIVER, S-9, Method: STANDARD PLATE): inactive; negative | mutagenic call [3]: inactive; negative | mutagenic call (Test System: AMES SALMONELLA TYPHIMURIUM, Strain/Indicator: TA100, Metabolic Activation: RAT, LIVER, S-9, Method: STANDARD PLATE): inactive; negative | mutagenic call (Test System: AMES SALMONELLA TYPHIMURIUM, Strain/Indicator: TA1535, Metabolic Activation: NONE, Method: STANDARD PLATE): inactive; negative | mutagenic call (Test System: AMES SALMONELLA TYPHIMURIUM, Strain/Indicator: TA1535, Metabolic Activation: RAT, LIVER, S-9, Method: STANDARD PLATE): inactive; negative | mutagenic call (Test System: AMES SALMONELLA TYPHIMURIUM, Strain/Indicator: TA1537, Metabolic Activation: NONE, Method: STANDARD PLATE): inactive; negative | mutagenic call (Test System: AMES SALMONELLA TYPHIMURIUM, Strain/Indicator: TA1537, Metabolic Activation: RAT, LIVER, S-9, Method: STANDARD PLATE): inactive; negative | mutagenic call (Test System: E. COLI, Strain/Indicator: WP2 UVRA, Metabolic Activation: NONE, Method: STANDARD PLATE): inactive; negative | mutagenic call (Test System: E. COLI, Strain/Indicator: WP2 UVRA, Metabolic Activation: RAT, LIVER, S-9, Method: STANDARD PLATE): inactive; negative

c1cc2cccc3c4cccc5cccc(c(c1)c23)c54
mutagenic call (Test System: AMES SALMONELLA TYPHIMURIUM, Strain/Indicator: TA97, Metabolic Activation: NONE, Method: STANDARD PLATE): inactive; negative | mutagenic call (Test System: AMES SALMONELLA TYPHIMURIUM, Strain/Indicator: TA97, Metabolic Activation: RAT, LIVER, S-9, PCB, Method: STANDARD PLATE): active; positive | mutagenic call (Test System: AMES SALMONELLA TYPHIMURIUM, Strain/Indicator: TA97A, Metabolic Activation: RAT, LIVER, S-9, AROCLOR 1254, Method: STANDARD PLATE): active; positive | mutagenic call [2]: inactive; negative | mutagenic call (Test System: AMES SALMONELLA TYPHIMURIUM, Strain/Indicator: TA98, Metabolic Activation: RAT, LIVER, S-9, AROCLOR 1254 (20 OR 50 µL S-9), Method: STANDARD PLATE): active; positive | mutagenic call (Test System: AMES SALMONELLA TYPHIMURIUM, Strain/Indicator: TA98, Metabolic Activation: RAT, LIVER, S-9, PCB, Method: STANDARD PLATE): active; positive | mutagenic call [3]: inactive; negative | mutagenic call (Test System: AMES SALMONELLA TYPHIMURIUM, Strain/Indicator: TA100, Metabolic Activation: RAT, LIVER, S-9, AROCLOR 1254 (50 µL S-9), Method: STANDARD PLATE): active; positive | mutagenic call (Test System: AMES SALMONELLA TYPHIMURIUM, Strain/Indicator: TA100, Metabolic Activation: RAT, LIVER, S-9, AROCLOR 1254, Method: STANDARD PLATE): active; positive | mutagenic call (Test System: AMES SALMONELLA TYPHIMURIUM, Strain/Indicator: TA100, Metabolic Activation: RAT, LIVER, S-9, PCB, Method: STANDARD PLATE): active; positive | mutagenic call (Test System: AMES SALMONELLA TYPHIMURIUM, Strain/Indicator: TA1535, Metabolic Activation: RAT, LIVER, S-9, AROCLOR 1254, Method: STANDARD PLATE): active; positive | mutagenic call (Test System: AMES SALMONELLA TYPHIMURIUM, Strain/Indicator: TA1537, Metabolic Activation: RAT, LIVER, S-9, AROCLOR 1254, Method: STANDARD PLATE): active; positive

O=[N+]([O-])c1ccc2ccc3cc4ccccc4c4ccc1c2c34
mutagenic call (Test System: AMES SALMONELLA TYPHIMURIUM, Strain/Indicator: TA98(1,8-DNP6), Metabolic Activation: NONE): active; positive | mutagenic call (Test System: AMES SALMONELLA TYPHIMURIUM, Strain/Indicator: TA98(1,8-DNP6), Metabolic Activation: NONE, Method: STANDARD PLATE): active; positive | mutagenic call (Test System: AMES SALMONELLA TYPHIMURIUM, Strain/Indicator: TA98(1,8-DNP6), Metabolic Activation: RAT, LIVER, S-9, AROCLOR 1254): active; positive | mutagenic call (Test System: AMES SALMONELLA TYPHIMURIUM, Strain/Indicator: TA98(NR), Metabolic Activation: NONE): active; positive | mutagenic call (Test System: AMES SALMONELLA TYPHIMURIUM, Strain/Indicator: TA98(NR), Metabolic Activation: NONE, Method: PREINCUBATION): active; positive | mutagenic call (Test System: AMES SALMONELLA TYPHIMURIUM, Strain/Indicator: TA98(NR), Metabolic Activation: NONE, Method: STANDARD PLATE): inactive; negative | mutagenic call (Test System: AMES SALMONELLA TYPHIMURIUM, Strain/Indicator: TA98(NR), Metabolic Activation: RAT, LIVER, S-9, AROCLOR 1254): active; positive | mutagenic call (Test System: AMES SALMONELLA TYPHIMURIUM, Strain/Indicator: TA98, Metabolic Activation: NONE): active; positive | mutagenic call (Test System: AMES SALMONELLA TYPHIMURIUM, Strain/Indicator: TA98, Metabolic Activation: NONE', Method: STANDARD PLATE): active; positive | mutagenic call [1]: active; positive | mutagenic call [2]: active; positive | mutagenic call (Test System: AMES SALMONELLA TYPHIMURIUM, Strain/Indicator: TA98, Metabolic Activation: NONE, Method: STANDARD PLATE (ANAEROBIC)): active; positive | mutagenic call (Test System: AMES SALMONELLA TYPHIMURIUM, Strain/Indicator: TA98, Metabolic Activation: RAT, LIVER, HEPATOCYTES, AROCLOR 1254): active; positive | mutagenic call (Test System: AMES SALMONELLA TYPHIMURIUM, Strain/Indicator: TA98, Metabolic Activation: RAT, LIVER, S-9, AROCLOR 1254): active; positive | mutagenic call [3]: active; positive | mutagenic call (Test System: CHINESE HAMSTER OVARY, Strain/Indicator: CHO-K1-BH4 (HGPRT), Metabolic Activation: NONE): inactive; negative | mutagenic call (Test System: CHINESE HAMSTER OVARY, Strain/Indicator: CHO-K1-BH4 (HGPRT), Metabolic Activation: RAT, LIVER, S-9, 3-METHYLCHOLANTHRENE): active; positive | mutagenic call (Test System: CHO/HGPRT, Strain/Indicator: CHO-K1-BH4, Metabolic Activation: NONE): inactive; negative | mutagenic call (Test System: CHO/HGPRT, Strain/Indicator: CHO-K1-BH4, Metabolic Activation: RAT, LIVER, HEPATOCYTES): inactive; negative | mutagenic call (Test System: CHO/HGPRT, Strain/Indicator: CHO-K1-BH4, Metabolic Activation: RAT, LIVER, HEPATOCYTES, 3-METHYLCHOLANTHRENE): inactive; negative | mutagenic call (Test System: CHO/HGPRT, Strain/Indicator: CHO-K1-BH4, Metabolic Activation: RAT, LIVER, HEPATOCYTES, AROCLOR 1254): inactive; negative | mutagenic call (Test System: CHO/HGPRT, Strain/Indicator: CHO-K1-BH4, Metabolic Activation: RAT, LIVER, S-9): inactive; negative | mutagenic call (Test System: CHO/HGPRT, Strain/Indicator: CHO-K1-BH4, Metabolic Activation: RAT, LIVER, S-9, 3-METHYLCHOLANTHRENE): active; positive | mutagenic call (Test System: CHO/HGPRT, Strain/Indicator: CHO-K1-BH4, Metabolic Activation: RAT, LIVER, S-9, AROCLOR 1254): active; positive

CC(=O)Nc1ccc2c(ccc3ccccc32)c1
mutagenic call (Test System: CHINESE HAMSTER OVARY, Strain/Indicator: AS52/6-THIOGUANINE, Metabolic Activation: NONE): inactive; negative | mutagenic call (Test System: CHINESE HAMSTER OVARY, Strain/Indicator: AS52/6-THIOGUANINE, Metabolic Activation: RAT LIVER S-9, 2-ACETYLAMINOFLUORINE): active; positive
